Measurements as given in the NIST ThermoML archive (doi:10.1016/j.fluid.2018.04.012).

Assay: xn = mol fraction of the nth substance listed
Conditions: Liquid, Vibrating tube method

CC(C)OC(C)C [diisopropyl ether] + CC(C)O
mass density [kg/m3]
Conditions | x2 = 0.1503 | x2 = 0.2979 | x2 = 0.4228 | x2 = 0.5 | x2 = 0.6737 | x2 = 0.8483
333.15 K, 130000 kPa | – | – | – | 807.2 | 815.2 | 824.7
333.15 K, 140000 kPa | 799.3 | 804.1 | 808.6 | 811.9 | 819.7 | 829.1
353.19 K, 1000 kPa | 665.8 | 673.2 | 680.7 | 685.4 | 698.3 | 713.7
353.19 K, 5000 kPa | 673.7 | 680.7 | 687.7 | 692.4 | 704.7 | 719.5
353.19 K, 10000 kPa | 682.3 | 689.1 | 695.5 | 700.2 | 711.9 | 726.1
353.19 K, 15000 kPa | 690 | 696.5 | 702.7 | 707.2 | 718.5 | 732.2
353.19 K, 20000 kPa | 696.9 | 703.2 | 709.2 | 713.6 | 724.5 | 737.7
353.19 K, 25000 kPa | 703.3 | 709.3 | 715.3 | 719.5 | 730.1 | 742.9
353.19 K, 30000 kPa | 709.2 | 715.1 | 720.9 | 725 | 735.3 | 747.8
353.19 K, 35000 kPa | 714.7 | 720.5 | 726.2 | 730.1 | 740.2 | 752.4
353.19 K, 40000 kPa | 719.8 | 725.4 | 731.2 | 734.9 | 744.8 | 756.7
353.19 K, 45000 kPa | 724.6 | 730.2 | 735.9 | 739.5 | 749.2 | 760.8
353.19 K, 50000 kPa | 729.4 | 734.8 | 740.3 | 743.9 | 753.5 | 764.9
353.19 K, 55000 kPa | 733.7 | 739 | 744.5 | 748 | 757.3 | 768.6
353.19 K, 60000 kPa | 737.8 | 743.1 | 748.6 | 752 | 761.1 | 772.2
353.19 K, 65000 kPa | 741.9 | 747.1 | 752.5 | 755.8 | 764.9 | 775.8
353.19 K, 70000 kPa | 745.7 | 750.9 | 756.2 | 759.5 | 768.4 | 779.2
353.19 K, 80000 kPa | 752.9 | 758 | 763.2 | 766.3 | 775 | 785.5
353.19 K, 90000 kPa | 759.7 | 764.7 | 769.7 | 772.8 | 781.4 | 791.6
353.19 K, 100000 kPa | 766 | 770.8 | 775.8 | 778.9 | 787.2 | 797.2
353.19 K, 110000 kPa | 772 | 776.8 | 781.5 | 784.7 | 792.9 | 802.7
353.19 K, 120000 kPa | 777.6 | 782.3 | 786.9 | 790.1 | 798.1 | 807.7
353.19 K, 130000 kPa | 782.9 | 787.6 | 792.1 | 795.2 | 803.1 | 812.6
353.19 K, 140000 kPa | 788.1 | 792.7 | 797 | 800.2 | 808 | 817.4
373.24 K, 1000 kPa | 641 | 648.3 | 655.6 | 660.4 | 673.6 | 689.6
373.24 K, 5000 kPa | 650.7 | 657.5 | 664.2 | 669 | 681.4 | 696.7
373.24 K, 10000 kPa | 661 | 667.6 | 673.7 | 678.3 | 690.1 | 704.5
373.24 K, 15000 kPa | 670 | 676.2 | 682.1 | 686.6 | 697.9 | 711.6
373.24 K, 20000 kPa | 678.1 | 684.1 | 689.7 | 694 | 704.8 | 718
373.24 K, 25000 kPa | 685.3 | 691.1 | 696.6 | 700.8 | 711.2 | 724
373.24 K, 30000 kPa | 692 | 697.6 | 703 | 707 | 717.1 | 729.5
373.24 K, 35000 kPa | 698.1 | 703.6 | 708.9 | 712.8 | 722.6 | 734.7
373.24 K, 40000 kPa | 703.9 | 709.2 | 714.5 | 718.1 | 727.8 | 739.6
373.24 K, 45000 kPa | 709.2 | 714.5 | 719.6 | 723.3 | 732.7 | 744.3
373.24 K, 50000 kPa | 714.2 | 719.3 | 724.5 | 728 | 737.2 | 748.6
373.24 K, 55000 kPa | 719.1 | 724.1 | 729.2 | 732.6 | 741.7 | 752.7
373.24 K, 60000 kPa | 723.5 | 728.5 | 733.6 | 736.9 | 745.8 | 756.7
373.24 K, 65000 kPa | 727.8 | 732.8 | 737.8 | 741.1 | 749.8 | 760.5
373.24 K, 70000 kPa | 732 | 736.8 | 741.8 | 745 | 753.6 | 764.2
373.24 K, 80000 kPa | 739.7 | 744.5 | 749.3 | 752.6 | 760.9 | 771.2
373.24 K, 90000 kPa | 747 | 751.7 | 756.3 | 759.4 | 767.7 | 777.7
373.24 K, 100000 kPa | 753.7 | 758.3 | 762.8 | 765.9 | 774 | 783.8
373.24 K, 110000 kPa | 760 | 764.5 | 768.9 | 772 | 779.9 | 789.5
373.24 K, 120000 kPa | 765.9 | 770.4 | 774.7 | 777.8 | 785.5 | 795
373.24 K, 130000 kPa | 771.6 | 776 | 780.2 | 783.3 | 790.9 | 800.2
373.24 K, 140000 kPa | 776.9 | 781.3 | 785.3 | 788.5 | 796 | 805.1
393.28 K, 1000 kPa | 614.1 | 620.6 | 627.9 | 632.9 | 645.9 | 662.5
393.28 K, 5000 kPa | 626.4 | 632.4 | 638.9 | 643.7 | 655.9 | 671.3
393.28 K, 10000 kPa | 639 | 644.7 | 650.5 | 655.2 | 666.5 | 680.9
393.28 K, 15000 kPa | 649.7 | 655.1 | 660.6 | 665.1 | 675.7 | 689.4
393.28 K, 20000 kPa | 658.9 | 664.1 | 669.5 | 673.7 | 683.9 | 696.9
393.28 K, 25000 kPa | 667.1 | 672.2 | 677.4 | 681.4 | 691.2 | 703.8
393.28 K, 30000 kPa | 674.7 | 679.5 | 684.6 | 688.5 | 698 | 710.1
393.28 K, 35000 kPa | 681.5 | 686.3 | 691.3 | 695.1 | 704.2 | 716
393.28 K, 40000 kPa | 687.8 | 692.5 | 697.4 | 701 | 710.1 | 721.5
393.28 K, 45000 kPa | 693.6 | 698.2 | 703.2 | 706.6 | 715.4 | 726.6
393.28 K, 50000 kPa | 699.1 | 703.7 | 708.6 | 711.8 | 720.5 | 731.5
393.28 K, 55000 kPa | 704.5 | 708.9 | 713.6 | 716.9 | 725.4 | 736.2
393.28 K, 60000 kPa | 709.2 | 713.7 | 718.4 | 721.6 | 729.9 | 740.5
393.28 K, 65000 kPa | 713.9 | 718.3 | 723 | 726 | 734.3 | 744.7
393.28 K, 70000 kPa | 718.4 | 722.8 | 727.3 | 730.4 | 738.5 | 748.8
393.28 K, 80000 kPa | 726.7 | 731 | 735.5 | 738.5 | 746.4 | 756.3
393.28 K, 90000 kPa | 734.4 | 738.6 | 742.9 | 746.1 | 753.7 | 763.4
393.28 K, 100000 kPa | 741.5 | 745.6 | 749.9 | 752.9 | 760.4 | 769.9
393.28 K, 110000 kPa | 748.3 | 752.4 | 756.4 | 759.5 | 766.8 | 776.1
393.28 K, 120000 kPa | 754.5 | 758.5 | 762.5 | 765.5 | 772.8 | 781.8
393.28 K, 130000 kPa | 760.4 | 764.4 | 768.3 | 771.3 | 778.4 | 787.4
393.28 K, 140000 kPa | 766.1 | 770 | 773.8 | 776.8 | 783.9 | 792.7
